Experimental data as given in patent US20230250066A1, “HERBICIDAL CINNOLINE DERIVATIVES” (SYNGENTA CROP PROTECTION AG, priority 2020, published 2023).

Legend:
Type in all cases: in vivo
[1] = test system: Amaranthus retoflexus (AMARE); test: Pre-emergence herbicidal test; conditions: 1000 g/ha, evaluated after 13 days
Setaria faberi (SETFA) [2] = test: Pre-emergence herbicidal test; conditions: 1000 g/ha, evaluated after 13 days
[3] = test system: Echinochloa crus-galli (ECHCG); test: Pre-emergence herbicidal test; conditions: 1000 g/ha, evaluated after 13 days
[4] = test system: Ipomoea hederacea (IPOHE); test: Pre-emergence herbicidal test; conditions: 1000 g/ha, evaluated after 13 days
[5] = test system: Abutilon theophrasti (ABUTH); test: Pre-emergence herbicidal test; conditions: 1000 g/ha, evaluated after 13 days
Zea mays (ZEAMX) [6] = test: Pre-emergence herbicidal test; conditions: 1000 g/ha, evaluated after 13 days
[7] = test system: Abutilon theophrasti (ABUTH); test: Post-emergence herbicidal test; conditions: 1000 g/ha unless otherwise stated, evaluated after 13 days
How it was run: (§1)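 Scored 0–5 for percent damage (0=0%, 5=81-100%) 13 days after spraying, typically at 1000 g/ha in acetone/water (50:50) plus 0.5% Tween 20. Post-emergence plants treated at 8 days old, grown at 24° C/16° C day/night, 14 h light, 65% humidity, watered twice daily.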

[8] = test system: Amaranthus retoflexus (AMARE); test: Post-emergence herbicidal test; conditions: 1000 g/ha unless otherwise stated, evaluated after 13 days
How it was run: as §1

[9] = test system: Echinochloa crus-galli (ECHCG); test: Post-emergence herbicidal test; conditions: 1000 g/ha unless otherwise stated, evaluated after 13 days
How it was run: as §1

[10] = test system: Ipomoea hederacea (IPOHE); test: Post-emergence herbicidal test; conditions: 1000 g/ha unless otherwise stated, evaluated after 13 days
How it was run: as §1

Setaria faberi (SETFA) [11] = test: Post-emergence herbicidal test; conditions: 1000 g/ha unless otherwise stated, evaluated after 13 days
How it was run: as §1

Zea mays (ZEAMX) [12] = test: Post-emergence herbicidal test; conditions: 1000 g/ha unless otherwise stated, evaluated after 13 days
How it was run: as §1

CC(OC(=O)c1nn(-c2ccc(OC(F)(F)F)cc2)c2cccc(S(C)(=O)=O)c2c1=O)C1CC1 (stereo not drawn) [Compound P74, 1-cyclopropylethyl 5-methylsulfonyl-4-oxo-1-[4-(trifluoromethoxy)phenyl]cinnoline-3-carboxylate]
5 (5=81-100%): percentage damage caused to the plant, five-point scale, SETFA (Setaria faberi (SETFA) [2])
4 (4=61-80%): percentage damage caused to the plant, five-point scale, ECHCG [3] | percentage damage caused to the plant, ECHCG (five-point scale) [9] | percentage damage caused to the plant, SETFA (five-point scale) (Setaria faberi (SETFA) [11])
1 (1=10-20%): percentage damage caused to the plant, ABUTH (five-point scale) [7] | percentage damage caused to the plant, AMARE (five-point scale) [8] | percentage damage caused to the plant, ZEAMX (five-point scale) (Zea mays (ZEAMX) [12])
0 (0=0%): percentage damage caused to the plant, five-point scale, AMARE [1] | percentage damage caused to the plant, five-point scale, IPOHE [4] | percentage damage caused to the plant, five-point scale, ABUTH [5] | percentage damage caused to the plant, five-point scale, ZEAMX (Zea mays (ZEAMX) [6]) | percentage damage caused to the plant, IPOHE (five-point scale) [10]

CS(=O)(=O)c1cccc2c1c(=O)c(C(=O)OCCCCCCCCCc1ccccc1)nn2-c1ccc(OC(F)(F)F)cc1 [Compound P83, 9-phenylnonyl 5-methylsulfonyl-4-oxo-1-[4-(trifluoromethoxy)phenyl]cinnoline-3-carboxylate]
0 (0=0%): percentage damage caused to the plant, five-point scale, AMARE [1] | percentage damage caused to the plant, five-point scale, SETFA (Setaria faberi (SETFA) [2]) | percentage damage caused to the plant, five-point scale, ECHCG [3] | percentage damage caused to the plant, five-point scale, IPOHE [4] | percentage damage caused to the plant, five-point scale, ABUTH [5] | percentage damage caused to the plant, five-point scale, ZEAMX (Zea mays (ZEAMX) [6]) | percentage damage caused to the plant, ABUTH (five-point scale) [7] | percentage damage caused to the plant, AMARE (five-point scale) [8] | percentage damage caused to the plant, ECHCG (five-point scale) [9] | percentage damage caused to the plant, IPOHE (five-point scale) [10] | percentage damage caused to the plant, SETFA (five-point scale) (Setaria faberi (SETFA) [11]) | percentage damage caused to the plant, ZEAMX (five-point scale) (Zea mays (ZEAMX) [12])

CCOC(=O)c1nn(-c2ccc(OC(F)(F)F)cc2)c2cc(F)cc(SC)c2c1=O [Compound P54, ethyl 7-fluoro-5-methylsulfanyl-4-oxo-1-[4-(trifluoromethoxy)phenyl]cinnoline-3-carboxylate]
1 (1=10-20%): percentage damage caused to the plant, five-point scale, AMARE [1] | percentage damage caused to the plant, five-point scale, ABUTH [5] | percentage damage caused to the plant, ABUTH (five-point scale) [7] | percentage damage caused to the plant, IPOHE (five-point scale) [10] | percentage damage caused to the plant, ZEAMX (five-point scale) (Zea mays (ZEAMX) [12])
0 (0=0%): percentage damage caused to the plant, five-point scale, IPOHE [4] | percentage damage caused to the plant, five-point scale, ZEAMX (Zea mays (ZEAMX) [6]) | percentage damage caused to the plant, ECHCG (five-point scale) [9] | percentage damage caused to the plant, SETFA (five-point scale) (Setaria faberi (SETFA) [11])
2 (2=21-40%): percentage damage caused to the plant, five-point scale, SETFA (Setaria faberi (SETFA) [2]) | percentage damage caused to the plant, five-point scale, ECHCG [3] | percentage damage caused to the plant, AMARE (five-point scale) [8]

CS(=O)(=O)c1cccc2c1c(=O)c(C(=O)OCCCCOCc1ccccc1)nn2-c1ccc(OC(F)(F)F)cc1 [Compound P89, 4-benzyloxybutyl 5-methylsulfonyl-4-oxo-1-[4-(trifluoromethoxy)phenyl]cinnoline-3-carboxylate]
3 (3=41-60%): percentage damage caused to the plant, ECHCG (five-point scale) [9]
4 (4=61-80%): percentage damage caused to the plant, five-point scale, SETFA (Setaria faberi (SETFA) [2]) | percentage damage caused to the plant, five-point scale, ECHCG [3] | percentage damage caused to the plant, SETFA (five-point scale) (Setaria faberi (SETFA) [11])
0 (0=0%): percentage damage caused to the plant, five-point scale, AMARE [1] | percentage damage caused to the plant, five-point scale, IPOHE [4] | percentage damage caused to the plant, five-point scale, ABUTH [5] | percentage damage caused to the plant, five-point scale, ZEAMX (Zea mays (ZEAMX) [6]) | percentage damage caused to the plant, ABUTH (five-point scale) [7] | percentage damage caused to the plant, AMARE (five-point scale) [8] | percentage damage caused to the plant, IPOHE (five-point scale) [10] | percentage damage caused to the plant, ZEAMX (five-point scale) (Zea mays (ZEAMX) [12])

CCOC(=O)c1nn(-c2ccc(OC(F)(F)F)cc2)c2ccc(C)c(S(C)(=O)=O)c2c1=O [Compound P8, ethyl 6-methyl-5-methylsulfonyl-4-oxo-1-[4-(trifluoromethoxy)phenyl]cinnoline-3-carboxylic acid]
3 (3=41-60%): percentage damage caused to the plant, five-point scale, ECHCG [3]
4 (4=61-80%): percentage damage caused to the plant, five-point scale, SETFA (Setaria faberi (SETFA) [2]) | percentage damage caused to the plant, ECHCG (five-point scale) [9] | percentage damage caused to the plant, SETFA (five-point scale) (Setaria faberi (SETFA) [11])
1 (1=10-20%): percentage damage caused to the plant, five-point scale, AMARE [1] | percentage damage caused to the plant, five-point scale, IPOHE [4] | percentage damage caused to the plant, five-point scale, ABUTH [5] | percentage damage caused to the plant, five-point scale, ZEAMX (Zea mays (ZEAMX) [6]) | percentage damage caused to the plant, ABUTH (five-point scale) [7] | percentage damage caused to the plant, AMARE (five-point scale) [8] | percentage damage caused to the plant, IPOHE (five-point scale) [10] | percentage damage caused to the plant, ZEAMX (five-point scale) (Zea mays (ZEAMX) [12])

O=C(O)c1nn(-c2ccc(OC(F)(F)F)cc2)c2cccc([S+]([O-])CC(F)(F)F)c2c1=O (stereo not drawn) [Compound P37, 4-oxo-5-(2,2,2-trifluoroethylsulfinyl)-1-[4-(trifluoromethoxy)phenyl]cinnoline-3-carboxylic acid]
1 (1=10-20%): percentage damage caused to the plant, five-point scale, ABUTH [5] | percentage damage caused to the plant, ABUTH (five-point scale) [7] | percentage damage caused to the plant, ECHCG (five-point scale) [9] | percentage damage caused to the plant, IPOHE (five-point scale) [10] | percentage damage caused to the plant, SETFA (five-point scale) (Setaria faberi (SETFA) [11]) | percentage damage caused to the plant, ZEAMX (five-point scale) (Zea mays (ZEAMX) [12])
0 (0=0%): percentage damage caused to the plant, five-point scale, AMARE [1] | percentage damage caused to the plant, five-point scale, SETFA (Setaria faberi (SETFA) [2]) | percentage damage caused to the plant, five-point scale, ECHCG [3] | percentage damage caused to the plant, five-point scale, IPOHE [4] | percentage damage caused to the plant, five-point scale, ZEAMX (Zea mays (ZEAMX) [6]) | percentage damage caused to the plant, AMARE (five-point scale) [8]

O=C(O)c1nn(-c2ccc(OC(F)(F)F)cc2)c2cccc(S(=O)(=O)C3CC3)c2c1=O [Compound P29, 5-cyclopropylsulfonyl-4-oxo-1-[4-(trifluoromethoxy)phenyl]cinnoline-3-carboxylic acid]
0 (0=0%): percentage damage caused to the plant, five-point scale, AMARE [1] | percentage damage caused to the plant, five-point scale, SETFA (Setaria faberi (SETFA) [2]) | percentage damage caused to the plant, five-point scale, ECHCG [3] | percentage damage caused to the plant, five-point scale, IPOHE [4] | percentage damage caused to the plant, five-point scale, ABUTH [5] | percentage damage caused to the plant, five-point scale, ZEAMX (Zea mays (ZEAMX) [6]) | percentage damage caused to the plant, ABUTH (five-point scale) [7] | percentage damage caused to the plant, AMARE (five-point scale) [8] | percentage damage caused to the plant, ECHCG (five-point scale) [9] | percentage damage caused to the plant, IPOHE (five-point scale) [10] | percentage damage caused to the plant, SETFA (five-point scale) (Setaria faberi (SETFA) [11]) | percentage damage caused to the plant, ZEAMX (five-point scale) (Zea mays (ZEAMX) [12])

CCOC(=O)c1nn(-c2ccc(OC(F)(F)F)cc2)c2cccc([S+]([O-])CC)c2c1=O (stereo not drawn) [Compound P24, ethyl 5-ethylsulfinyl-4-oxo-1-[4-(trifluoromethoxy)phenyl]cinnoline-3-carboxylate]
1 (1=10-20%): percentage damage caused to the plant, ABUTH (five-point scale) [7] | percentage damage caused to the plant, AMARE (five-point scale) [8] | percentage damage caused to the plant, ECHCG (five-point scale) [9] | percentage damage caused to the plant, ZEAMX (five-point scale) (Zea mays (ZEAMX) [12])
0 (0=0%): percentage damage caused to the plant, five-point scale, AMARE [1] | percentage damage caused to the plant, five-point scale, SETFA (Setaria faberi (SETFA) [2]) | percentage damage caused to the plant, five-point scale, ECHCG [3] | percentage damage caused to the plant, five-point scale, IPOHE [4] | percentage damage caused to the plant, five-point scale, ABUTH [5] | percentage damage caused to the plant, five-point scale, ZEAMX (Zea mays (ZEAMX) [6]) | percentage damage caused to the plant, IPOHE (five-point scale) [10] | percentage damage caused to the plant, SETFA (five-point scale) (Setaria faberi (SETFA) [11])
